Laboratory results as given in patent US11414429B2, “Compound or pharmaceutically acceptable salt thereof” (RIKEN, priority 2016, dated 2022).
Like-named read-outs stand apart in the source and are kept apart here.

How the values were obtained:
tankyrase 1 (TNKS 1) = target: T1, tankyrase 1 (TNKS 1) (Homo sapiens, UniProt O95271); assay: Tankyrase inhibitory activity test (ELISA, self-polyADP ribosylation), tankyrase 1; type: biochemical; conditions: tankyrase 1, ELISA, self-polyADP ribosylation; read-out: TNKS1 inhibitory activity (IC50 class)
T1 construct: 1,024-1,327aa; made in house; host or cells: cell-free protein synthesis system
T1 sequence (O95271 1024-1327): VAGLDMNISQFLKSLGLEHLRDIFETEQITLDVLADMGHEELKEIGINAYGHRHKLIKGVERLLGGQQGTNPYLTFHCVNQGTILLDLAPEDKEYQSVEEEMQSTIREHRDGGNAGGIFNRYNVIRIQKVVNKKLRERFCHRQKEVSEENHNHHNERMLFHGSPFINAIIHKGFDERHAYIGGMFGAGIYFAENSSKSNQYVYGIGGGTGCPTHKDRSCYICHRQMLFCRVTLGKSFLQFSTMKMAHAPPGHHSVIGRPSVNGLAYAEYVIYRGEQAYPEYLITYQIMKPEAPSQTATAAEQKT
Method: (§1) (Test Example 1) Tankyrase Inhibitory Activity Test
(§2) For each of the compounds obtained in Examples (the test target compounds), the tankyrase inhibitory activity (an inhibitory activity against tankyrase 1 (TNKS 1) and an inhibitory activity against tankyrase 2 (TNKS 2)) was evaluated by measuring the enzymatic activity of tankyrase 1 and the enzymatic activity of tankyrase 2 by the ELISA technique using self-polyADP ribosylation as an index. First, Flag-tag fusion tankyrase 1 (1,024-1,327aa, SAM+PARP) and tankyrase 2 (613-1, 116aa, ANK5+SAM+PARP) were each synthesized by a cell-free protein synthesis system and diluted with a Tris buffer (50 mM Tris-HCl (pH 8.0), 150 mM NaCl, 10% glycerol). Then, 50 μL of the diluted tankyrase 1 or tankyrase 2 was added to a plate on which the anti-FLAGM 2 monoclonal antibody was immobilized (Anti-FLAG high sensitivity M2 coated plate) (SIGMA Corporation), and was allowed to stand at 4° C. overnight. Thereafter, the plate was washed four times with a PBS buffer containing 0.1% Triton X-100 (PBST buffer).
(§3) Subsequently, the test target compound diluted with an assay buffer (50 mM Tris-HCl (pH 8.0), 4 mM MgCl2, 0.2 mM DTT) (using DMSO as a control) was added to each well of the plate and was allowed to stand at room temperature for 10 minutes. Thereafter, a biotin-labeled NAD solution (225 μM NAD, 25 μM 6-Biotin-17-NAD (Trevigen Inc.)) was added as a donor substrate and mixed with the resultant test target compound, and the reaction was allowed to proceed at 30° C. for 45 minutes. Instead of the biotin-labeled NAD solution, distilled water was added to blank wells. After the reaction, the plate was washed four times with the PBST buffer. Thereafter, HRP (horseradish peroxidase)-labeled streptavidin (Trevigen Inc.) diluted 1,000-fold with the PBS buffer was added to each well, and the reaction was allowed to proceed at room temperature for 20 minutes. After the plate was washed four times with the PBST buffer, a chemiluminescent substrate solution TACS-Sapphire (Trevigen Inc.) was added to each well and the reaction was allowed to proceed at room temperature for 20 minutes. Then, the chemiluminescence intensity was measured using a chemiluminescence measuring apparatus.
(§4) The residual enzyme activity in the presence of the test target compound was determined in accordance with the following formula. Based on the residual enzyme activity at multiple concentrations of the test target compound, an enzyme inhibition activity was calculated as a 50% inhibitory concentration (IC50 value) using data analysis software named Origin (LightStone Corp.).

[1] = system: human colorectal cancer cell line, COLO-320DM; assay: Cell proliferation inhibitory activity test (Celltiter-Glo Luminescent Cell Viability Assay); type: cell-based; conditions: COLO-320DM cells, 96 hours
Method: (Test Example 2) Cell Proliferation Inhibitory Activity Test
The cell proliferation inhibitory activity of the compound obtained in each of Examples against human colorectal cancer cell line, COLO-320DM was evaluated by Celltiter-Glo Luminescent Cell Viability Assay (Promega Corporation, G7573). The COLO-320 DM cells were cultured in a RPMI-1640 medium (Wako Pure Chemical Industries, Ltd., 189-02025) containing 10% fetal bovine serum and 2 mM of glutamine. The cultured cells were washed with PBS and then detached with trypsin/EDTA to prepare a cell solution containing 3×10^4 cells/mL.
Next, the cell solution was seeded in a 96 well microplate (Thermo/Nunc, 136101) in an amount of 70 μL/well and was cultured overnight under conditions at 37° C. with 5% CO2. On the next day, 10 μL/well of a solution in which the test target compound (DMSO solution) was diluted with the cell culture medium (a final DMSO concentration of 1%) was added and the reaction was allowed to proceed under conditions at 37° C. with 5% CO2 for 96 hours (a 1% DMSO solution was used as a control). Subsequently, 80 μL/well of Celltiter-Glo Luminescent Cell Viability Assay reagent (Promega Corporation, G7573) was added, followed by agitation for 2 minutes with a shaker under shielding with aluminum foil. Thereafter, the resultant solution was allowed to stand for reaction at room temperature for 10 minutes.
After that, the luminescent signal was measured with a luminometer (Biotech, Synergy). The cell proliferation inhibitory activity was evaluated by obtaining a percentage of a cell proliferation volume of each compound-added group with respect to a cell proliferation volume (100%) of a control group in which no test target component solution was added, and calculating a value of compound concentration (GI50) required to reduce the remaining cell volume to 50% of the remaining cell volume of the control. […] The results are shown in Tables 120 to 123 together with the results of the tankyrase inhibition activity test.

tankyrase 2 (TNKS 2) = target: T2, tankyrase 2 (TNKS 2) (Homo sapiens, UniProt Q9H2K2); assay: Tankyrase inhibitory activity test (ELISA, self-polyADP ribosylation), tankyrase 2; type: biochemical; conditions: tankyrase 2, ELISA, self-polyADP ribosylation; read-out: TNKS2 inhibitory activity (IC50 class)
T2 construct: 613-1, 116aa; made in house; host or cells: cell-free protein synthesis system
T2 sequence (Q9H2K2 613-1166): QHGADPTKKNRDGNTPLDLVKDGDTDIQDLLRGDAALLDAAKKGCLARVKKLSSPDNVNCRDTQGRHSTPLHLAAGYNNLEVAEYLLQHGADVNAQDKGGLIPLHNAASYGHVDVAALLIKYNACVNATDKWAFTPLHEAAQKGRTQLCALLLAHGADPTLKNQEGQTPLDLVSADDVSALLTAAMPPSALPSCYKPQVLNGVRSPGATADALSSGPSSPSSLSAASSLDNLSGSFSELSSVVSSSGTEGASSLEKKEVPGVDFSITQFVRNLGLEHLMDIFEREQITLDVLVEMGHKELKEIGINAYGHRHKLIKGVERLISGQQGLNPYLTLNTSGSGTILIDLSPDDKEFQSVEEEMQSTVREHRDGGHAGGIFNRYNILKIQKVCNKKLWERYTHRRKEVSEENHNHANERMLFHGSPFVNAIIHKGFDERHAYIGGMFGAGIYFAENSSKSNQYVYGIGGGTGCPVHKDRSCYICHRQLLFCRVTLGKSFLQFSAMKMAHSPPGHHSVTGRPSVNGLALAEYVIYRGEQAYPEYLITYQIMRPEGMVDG
Method: as §1, §2, §3, §4

[2] = read-out: COLO-320 DM cell proliferation inhibitory activity (GI50 class)
[3] = class symbols, read-out: COLO-320 DM (cell proliferation inhibitory activity, GI50 value)

Structure (SMILES)	IC50 (tankyrase 1 (TNKS 1))	GI50 [1, 2]	IC50 (tankyrase 2 (TNKS 2))	GI50 [1, 3]
CN(C)CCOc1cc(F)c2c(c1)C(=O)OC21CCN(c2nc3c(c(=O)[nH]2)CCCN3C)CC1 [Example 7, 5-[2-(dimethylamino)ethoxy]-7-fluoro-1′-(8-methyl-4-oxo-3,4,5,6,7,8-hexahydropyrido[2,3-d]pyrimidin-2-yl)-3H-spiro[isobenzofuran-1,4′-piperidin]-3-one]	< 20 nM	600 to 1000 nM	< 20 nM	
CN(C)C(=O)COc1cc(F)c2c(c1)C(=O)OC21CCN(c2nc3c(c(=O)[nH]2)CCCN3C)CC1 [Example 55, 2-{[7-fluoro-1′-(8-methyl-4-oxo-3,4,5,6,7,8-hexahydro-pyrido[2,3-d)pyrimidin-2-yl)-3-oxo-3H-spiro[isobenzo-furan-1,4′-piperidin)-5-yl)oxy}-N,N-dimethyl-acetamid]	< 20 nM	600 to 1000 nM	< 20 nM	
COc1cccc(CN2CC3(CCN(c4nc5c(c(=O)[nH]4)CCCC5)CC3)c3ccccc32)c1 [Example 99, 2-[1-(3-methoxy-benzyl)spiro[indoline-3,4′-piperidin]-1′-yl]-5,6,7,8-tetrahydroquinazolin-4(3H)-one]	20 to 200 nM	600 to 1000 nM	< 20 nM	
O=c1[nH]c(N2CCC3(CC2)CN(Cc2ccncc2)c2ccccc23)nc2c1CCCC2 [Example 100, 2-[1-(pyridin-4-ylmethyl)spiro[indoline-3,4′-piperidin]-1′-yl]-5,6,7,8-tetrahydroquinazolin-4(3H)-one]	< 20 nM	600 to 1000 nM	20 to 200 nM	
O=c1[nH]c(N2CCC3(CC2)CN(Cc2cccnc2)c2ccccc23)nc2c1CCCC2 [Example 101, 2-[1-(pyridin-3-ylmethyl)spiro[indoline-3,4′-piperidin]-1′-yl]-5,6,7,8-tetrahydroquinazolin-4(3H)-one]	20 to 200 nM	600 to 1000 nM	20 to 200 nM	
COc1ccc2c(c1)C1(CCN(c3nc4c(c(=O)[nH]3)CCCC4)CC1)CN2C [Example 147, 2-(5-methoxy-1-meth-ylspiro[indoline-3,4′-piperidin]-1′-yl)-5,6,7,8-tetrahydroquinazolin-4(3H)-one]	20 to 200 nM	600 to 1000 nM	< 20 nM	
CN1CCCc2c1nc(N1CCC3(CC1)C(=O)Nc1cccc(F)c13)[nH]c2=O [Example 185, 2-(4-fluoro-2-oxospiro [indoline-3,4′-piperidin]-1′-yl)-8-methyl-5,6,7,8-tetrahydro-pyrido[2,3-d] pyrimidine-4(3H)-one]	< 20 nM	100 to 600 nM	< 20 nM	
CCOC(=O)c1cc(Cl)c2c(c1)N(Cc1cccnc1)CC21CCN(c2nc3c(c(=O)[nH]2)CCCC3)CC1 [Example 193, ethyl 4-chloro-1′-(4-oxo-3,4,5,6,7,8-hexahydroquinazolin-2-yl)-1-(pyridin-3-yl) methylspiro [indoline-3,4′-piperidine]-6-carboxylate]	20 to 200 nM	100 to 600 nM	20 to 200 nM	
O=C(NCCN1CCOCC1)c1cc(Cl)c2c(c1)N(Cc1cccnc1)CC21CCN(c2nc3c(c(=O)[nH]2)CCCC3)CC1 [Example 196, 4-chloro-N-(2-morpho-linoethyl)-1′-(4-oxo-3,4,5,6,7,8-hexahydro-quinazolin-2-yl)-1-(pyridin-3-ylmethyl) spiro[indoline-3,4′-piperidine]-6-carboxamide]	< 20 nM	600 to 1000 nM	< 20 nM	
O=c1[nH]c(N2CCC3(CC2)CN(Cc2cccnc2)c2cc(Cl)ccc23)nc2c1CCCC2 [Example 218, 2-(6-chloro-1-(pyridin-3-ylmethyl)spiro [indoline-3,4′-piperidin]-1′-yl)-5,6,7,8-tetrahydro-quinazolin-4(3H)-one]	20 to 200 nM	600 to 1000 nM	< 20 nM	
O=c1[nH]c(N2CCC3(CC2)CN(Cc2cccnc2)c2cccc(Cl)c23)nc2c1CCCC2 [Example 221, 2-[4-chloro-1-(pyridin-3-yl)methylspiro [indoline-3,4′-piperidin] 1′-yl)-5,6,7,8-tetrahydro quinazolin-4(3H)-one]	< 20 nM	100 to 600 nM	< 20 nM	
O=C1N(Cc2cccnc2)c2cccc(Cl)c2C12CCN(c1nc3c(c(=O)[nH]1)CCCC3)CC2 [Example 226, 4-chloro-1′-(4-oxo-3,4,5,6,7,8-hexahydroquinazolin-2-yl)-1-(pyridin-3-ylmethyl) spiro [indoline-3,4′-piperidin]-2-one]	< 20 nM	100 to 600 nM	< 20 nM	
CN1C(=O)C2(CCN(c3nc4c(c(=O)[nH]3)CCCC4)CC2)c2c(Cl)cc(O)cc21 [Example 234, 4-chloro-6-hydroxy-1-methyl-1′-(4-oxo-3,4,5,6,7,8-hexahydro-quinazolin-2-yl)spiro [indoline-3,4′-piperidin]-2-one]	< 20 nM	100 to 600 nM	< 20 nM	
O=c1[nH]c(N2CCC3(CC2)CN(Cc2cccnc2)c2cc(F)cc(F)c23)nc2c1CCCC2 [Example 251, 2-[4,6-difluoro-1-(pyridin-3-yl)methyl-spiro [indoline-3,4′-piperidin]-1′-yl]-5,6,7,8-tetrahydro-quinazolin-4(3H)-one]	< 20 nM	100 to 600 nM	< 20 nM	
O=c1[nH]c(N2CCC3(CC2)CN(Cc2cncnc2)c2cc(F)cc(F)c23)nc2c1CCCC2 [Example 252, 2-[4,6-difluoro-1-(pyrimidin-5-yl)methyl-spiro [indoline-3,4′-piperidin]-1′-yl]-5,6,7,8-tetrahydro-quinazolin-4(3H)-one]	< 20 nM	100 to 600 nM	< 20 nM	
CN1CCCc2c1nc(N1CCC3(CC1)C(=O)N(CC(F)(F)F)c1cc(OCC(=O)O)cc(F)c13)[nH]c2=O [Example 408]				< 100 nM
CN1CCCc2c1nc(N1CCC3(CC1)C(=O)N(C)c1c(OC4CCOC4)ccc(Cl)c13)[nH]c2=O (stereo not drawn) [Example 433, 4-chloro-1′-(4-hydroxy-8-methyl-6,7-dihydro-5H-pyrido[2,3-d]pyrimidin-2-yl)-1-methyl-7-(oxolan-3-yloxy) spiro[indole-3,4′-piperidin]-2-one]				< 100 nM
CN1CCCc2c1nc(N1CCC3(CC1)C(=O)N(C)c1cc(C4CCC(O)CC4)cc(F)c13)[nH]c2=O (stereo not drawn) [Example 468, 4-fluoro-6-(4-hydroxycyclohexyl)-1-methyl-1′-(8-methyl-4-oxo-3,4,5,6,7,8-hexahydropyrido[2,3-d]pyrimidin-2-yl)spiro[indole-3,4′-piperidine]-2(1H)-one]				< 100 nM
